# Measured values published in article PMC9323911, “Comparative Metabolomics Study of the Impact of Articaine and Lidocaine on the Metabolism of SH-SY5Y Neuronal Cells” (Metabolites, 2022).
# Counter-ions that a name gives are not always drawn.
# Tests used:
# [1] = tested on: SH-SY5Y cells; assay: 1H NMR metabolic profiling of culture medium (consumption/excretion); assay type: cell-based, human; details: vs control
# Protocol: (§1) Afterward, the medium was collected and the dishes washed with cold PBS, immediately before the solvent extraction procedure described below. Unexposed cells were used as controls. Each assay comprised duplicates of each condition and three independent assays were performed, giving a total of 6 replicates per condition.
# (§2) The culture medium was collected from each plate (including cell-free medium incubated under the same conditions) in conical tubes and centrifuged at 1000× g for 10 min. Furthermore, 300 µL of the supernatant were collected for protein precipitation, as described by Kostidis et al.. Briefly, 600 µL of 100% methanol (v/v) at −80 °C were added to the collected supernatant ([…]). […] The supernatant was transferred to another tube and vacuum dried (SpeedVac, Eppendorf, Hamburg, Germany). For extracting cellular metabolites, a biphasic extraction protocol (methanol:chloroform:water; 1:1:0.7) was used as previously described. The resulting polar extracts were dried under vacuum in a Speedvac concentrator, and the lipophilic extracts were dried under a nitrogen flow. All extracts were stored at −80 °C prior to NMR analysis.
# (§3) For NMR analysis, dried aqueous and lipid extracts were dissolved, respectively, in 600 μL of deuterated phosphate buffer (PBS 100 mM, pH 7.4) containing 0.1 mM 3-(trimethylsilyl) propionic acid (TSP-d4), and 600 μL of deuterated chloroform containing 0.03% tetramethylsilane (TMS). […] Two-dimensional NMR spectra, namely, ^1H-^1H TOCSY, J-resolved and ^1H-^13C HSQC spectra, were also recorded for selected samples to aid metabolite identification. Signal assignment was based on matching 1D and 2D spectral information to reference spectra available in Chenomx 9.0 (Edmonton, AB, Canada), BBIOREFCODE-2–0–0 (Bruker Biospin, Rheinstetten, Germany) and HMDB.
# (§4) To provide a quantitative measurement of metabolic variations, spectral integration and total area normalization of selected signals (vide Supplementary Table S1) were carried out in Amix-Viewer 3.9.15 (Bruker Biospin, Rheinstetten, Germany). For each metabolite, the percentage of variation (or fold change) in exposed samples was calculated relative to respective controls, along with the effect size (ES) and statistical significance (p-value). The variations with larger magnitude (|ES| > 0.8) were expressed in a heatmap.
# [2] = tested on: SH-SY5Y cells; assay: 1H NMR metabolic profiling of cell aqueous extracts; assay type: cell-based, human
# Protocol: as §1, §2, §3
# Principal Component Analysis (PCA) and Partial Least Squares-Discriminant Analysis (PLS-DA) were applied and the results were visualized through factorial co-ordinates (‘scores’) and factorial contributions (‘loadings’) colored according to variable importance to the projection (VIP). For PLS-DA models, Q^2 and R^2 values, respectively reflecting predictive capability and explained variance, obtained from sevenfold internal cross validation, were used to assess the robustness of group discrimination.
# as §4
structure (smiles),measurement,setting,value
"CCN(CC)CC(=O)Nc1c(C)cccc1C [LDC, lidocaine hydrochloride]",pyruvate consumption,"[1]; IC10, 24 h",increased significantly
same,pyruvate consumption,"[1]; IC50, 24 h",no difference to controls
same,"2-Ketovaline, variation in relation to control","[2]; IC10, 24 h, aqueous extract",0.0%
same,"2-Oxoisoleucine, variation in relation to control","[2]; IC10, 24 h, aqueous extract",0.0%
same,"ATP + ADP, variation in relation to control","[2]; IC10, 24 h, aqueous extract",-10.4%
same,"Alanine, variation in relation to control","[2]; IC10, 24 h, aqueous extract",0.0%
same,"Asparagine, variation in relation to control","[2]; IC10, 24 h, aqueous extract",-18.9%
same,"Aspartate, variation in relation to control","[2]; IC10, 24 h, aqueous extract",-12.9%
same,"Creatine, variation in relation to control","[2]; IC10, 24 h, aqueous extract",24.9%
same,"Cystathionine, variation in relation to control","[2]; IC10, 24 h, aqueous extract",12.1%
same,"Formate, variation in relation to control","[2]; IC10, 24 h, aqueous extract",17.0%
same,"Glutamate, variation in relation to control","[2]; IC10, 24 h, aqueous extract",-16.3%
same,"Glutamine, variation in relation to control","[2]; IC10, 24 h, aqueous extract",-22.0%
same,"Glycerophosphocholine, variation in relation to control","[2]; IC10, 24 h, aqueous extract",-11.7%
same,"Glycine, variation in relation to control","[2]; IC10, 24 h, aqueous extract",16.6%
same,"Histidine, variation in relation to control","[2]; IC10, 24 h, aqueous extract",11.8%
same,"Isobutyrate, variation in relation to control","[2]; IC10, 24 h, aqueous extract",-14.4%
same,"Isoleucine, variation in relation to control","[2]; IC10, 24 h, aqueous extract",18.2%
same,"Lactate, variation in relation to control","[2]; IC10, 24 h, aqueous extract",0.0%
same,"Leucine, variation in relation to control","[2]; IC10, 24 h, aqueous extract",33.4%
same,"NAD+, variation in relation to control","[2]; IC10, 24 h, aqueous extract",0.0%
same,"Panthothenic, variation in relation to control","[2]; IC10, 24 h, aqueous extract",11.9%
same,"Phenylalanine, variation in relation to control","[2]; IC10, 24 h, aqueous extract",22.7%
same,"Phosphocholine, variation in relation to control","[2]; IC10, 24 h, aqueous extract",14.1%
same,"Phosphocreatine, variation in relation to control","[2]; IC10, 24 h, aqueous extract",-16.1%
same,"Proline, variation in relation to control","[2]; IC10, 24 h, aqueous extract",-15.8%
same,"UDP-GlcNAc, variation in relation to control","[2]; IC10, 24 h, aqueous extract",-10.8%
same,"Valine, variation in relation to control","[2]; IC10, 24 h, aqueous extract",15.5%
same,"beta-Alanine, variation in relation to control","[2]; IC10, 24 h, aqueous extract",-10.0%
same,"myo-Inositol, variation in relation to control","[2]; IC10, 24 h, aqueous extract",-16.9%
same,"2-Ketovaline, variation in relation to control","[2]; IC50, 24 h, aqueous extract",16.5%
same,"2-Oxoisoleucine, variation in relation to control","[2]; IC50, 24 h, aqueous extract",21.6%
same,"ATP + ADP, variation in relation to control","[2]; IC50, 24 h, aqueous extract",-23.0%
same,"Alanine, variation in relation to control","[2]; IC50, 24 h, aqueous extract",17.1%
same,"Asparagine, variation in relation to control","[2]; IC50, 24 h, aqueous extract",27.8%
same,"Aspartate, variation in relation to control","[2]; IC50, 24 h, aqueous extract",12.1%
same,"Creatine, variation in relation to control","[2]; IC50, 24 h, aqueous extract",17.6%
same,"Cystathionine, variation in relation to control","[2]; IC50, 24 h, aqueous extract",-28.3%
same,"Formate, variation in relation to control","[2]; IC50, 24 h, aqueous extract",58.8%
same,"Glutamate, variation in relation to control","[2]; IC50, 24 h, aqueous extract",0.0%
same,"Glutamine, variation in relation to control","[2]; IC50, 24 h, aqueous extract",43.0%
same,"Glycerophosphocholine, variation in relation to control","[2]; IC50, 24 h, aqueous extract",-33.4%
same,"Glycine, variation in relation to control","[2]; IC50, 24 h, aqueous extract",48.8%
same,"Histidine, variation in relation to control","[2]; IC50, 24 h, aqueous extract",22.5%
same,"Isoleucine, variation in relation to control","[2]; IC50, 24 h, aqueous extract",33.4%
same,"Lactate, variation in relation to control","[2]; IC50, 24 h, aqueous extract",-12.4%
same,"Leucine, variation in relation to control","[2]; IC50, 24 h, aqueous extract",54.2%
same,"NAD+, variation in relation to control","[2]; IC50, 24 h, aqueous extract",16.7%
same,"Panthothenic, variation in relation to control","[2]; IC50, 24 h, aqueous extract",14.7%
same,"Phenylalanine, variation in relation to control","[2]; IC50, 24 h, aqueous extract",36.2%
same,"Phosphocholine, variation in relation to control","[2]; IC50, 24 h, aqueous extract",23.7%
same,"Phosphocreatine, variation in relation to control","[2]; IC50, 24 h, aqueous extract",-42.3%
same,"Proline, variation in relation to control","[2]; IC50, 24 h, aqueous extract",-38.0%
same,"UDP-GlcNAc, variation in relation to control","[2]; IC50, 24 h, aqueous extract",-38.7%
same,"Valine, variation in relation to control","[2]; IC50, 24 h, aqueous extract",33.9%
same,"beta-Alanine, variation in relation to control","[2]; IC50, 24 h, aqueous extract",-72.1%
same,"myo-Inositol, variation in relation to control","[2]; IC50, 24 h, aqueous extract",-50.6%
same,intracellular glutamate level (in words),"[2]; IC50, 24 h, vs control",not altered
same,intracellular phosphocholine level (in words),"[2]; IC50, 24 h, vs control",increased
